Results as given in ChEMBL document CHEMBL1201862, “PubChem BioAssay data set” (2004).
Values belong to the molecule of their own block, whether it stands above or below them. Active and inactive are the calls of the source.

How the values were obtained:
[1] = target: NS3 (Hepatitis C virus, UniProt A3EZJ3); assay: PubChem AID 2173; design: species or system Hepacivirus hominis
[2] = cytotoxicity in HEK-293T cells, dose response, cytotoxicity control for TCR NF-kB inhibitor project, luminescence, T-cell screen hits (AID 489026); assay type: functional, cell-based;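 further: cells exposed to compound about 14 hours before the viability readout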
[3] = Luminescence-based counterscreen assay for KLF5 inhibitors: dose response cell-based high throughput screening assay to identify cytotoxic compounds using the IEC-6 intestinal epithelial cell line. [Related pubchem assays: 1700 (Primary screen.), 1834 (Confirmation screen.), 1858 (Summary AID.), 1905 (Counterscreen.)]; assay type: functional
[4] = Luminescence Cell-Based Dose Confirmation HTS to Identify Inhibitors of Platelet Dense Granule Release. [Related pubchem assays: 1663 (Primary HTS), 1678 (Summary of Project)]; assay type: functional
[5] = target: T1, Heat shock factor protein 1 (Mus musculus, UniProt P38532); assay: inhibition of MG132-induced HSE-luciferase signal, confirmation, cell-based, NIH3T3, luminescence, dose retest (AID 2382); assay type: functional;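 further: NIH3T3 fibroblasts with HSF1-driven luciferase reporter stressed by proteasome inhibitor MG132; luminescence from HSF1-driven luciferase expression after 8 hours of MG132 stress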
T1 sequence (P38532 whole entry): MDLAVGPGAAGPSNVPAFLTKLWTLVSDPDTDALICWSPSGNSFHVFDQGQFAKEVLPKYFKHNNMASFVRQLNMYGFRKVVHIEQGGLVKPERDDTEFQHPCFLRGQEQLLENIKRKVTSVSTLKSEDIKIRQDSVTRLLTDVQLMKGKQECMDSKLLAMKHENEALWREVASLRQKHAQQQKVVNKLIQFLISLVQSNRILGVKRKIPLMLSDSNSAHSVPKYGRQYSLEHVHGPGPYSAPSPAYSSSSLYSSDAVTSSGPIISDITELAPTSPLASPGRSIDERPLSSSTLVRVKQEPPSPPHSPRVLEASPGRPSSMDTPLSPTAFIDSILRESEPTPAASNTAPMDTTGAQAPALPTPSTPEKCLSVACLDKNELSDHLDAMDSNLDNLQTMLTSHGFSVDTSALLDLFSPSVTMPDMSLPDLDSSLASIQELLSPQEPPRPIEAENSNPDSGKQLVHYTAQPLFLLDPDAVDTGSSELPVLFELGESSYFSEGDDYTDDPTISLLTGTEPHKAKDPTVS

[6] = target: Luciferin 4-monooxygenase (Photinus pyralis, UniProt P08659); assay: firefly luciferase enzyme inhibitors, dose response, biochemical, luminescence (AID 1891)
Chain of Luciferin 4-monooxygenase (P08659 whole entry): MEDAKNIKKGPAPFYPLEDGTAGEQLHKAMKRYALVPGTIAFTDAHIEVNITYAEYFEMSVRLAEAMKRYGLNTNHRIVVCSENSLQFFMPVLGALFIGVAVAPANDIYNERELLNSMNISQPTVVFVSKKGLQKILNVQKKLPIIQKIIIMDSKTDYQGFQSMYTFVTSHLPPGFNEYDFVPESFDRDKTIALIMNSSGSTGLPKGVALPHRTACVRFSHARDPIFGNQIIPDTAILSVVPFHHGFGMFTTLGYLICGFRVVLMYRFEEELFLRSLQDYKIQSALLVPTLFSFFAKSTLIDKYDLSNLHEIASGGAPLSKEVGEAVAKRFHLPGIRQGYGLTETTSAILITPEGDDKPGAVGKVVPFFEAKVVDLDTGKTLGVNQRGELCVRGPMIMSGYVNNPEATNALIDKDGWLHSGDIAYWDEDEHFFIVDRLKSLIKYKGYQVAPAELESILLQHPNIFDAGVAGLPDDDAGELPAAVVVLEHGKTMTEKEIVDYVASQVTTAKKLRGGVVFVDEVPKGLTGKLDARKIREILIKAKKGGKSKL

Chain of NS3 (A3EZJ3 whole entry): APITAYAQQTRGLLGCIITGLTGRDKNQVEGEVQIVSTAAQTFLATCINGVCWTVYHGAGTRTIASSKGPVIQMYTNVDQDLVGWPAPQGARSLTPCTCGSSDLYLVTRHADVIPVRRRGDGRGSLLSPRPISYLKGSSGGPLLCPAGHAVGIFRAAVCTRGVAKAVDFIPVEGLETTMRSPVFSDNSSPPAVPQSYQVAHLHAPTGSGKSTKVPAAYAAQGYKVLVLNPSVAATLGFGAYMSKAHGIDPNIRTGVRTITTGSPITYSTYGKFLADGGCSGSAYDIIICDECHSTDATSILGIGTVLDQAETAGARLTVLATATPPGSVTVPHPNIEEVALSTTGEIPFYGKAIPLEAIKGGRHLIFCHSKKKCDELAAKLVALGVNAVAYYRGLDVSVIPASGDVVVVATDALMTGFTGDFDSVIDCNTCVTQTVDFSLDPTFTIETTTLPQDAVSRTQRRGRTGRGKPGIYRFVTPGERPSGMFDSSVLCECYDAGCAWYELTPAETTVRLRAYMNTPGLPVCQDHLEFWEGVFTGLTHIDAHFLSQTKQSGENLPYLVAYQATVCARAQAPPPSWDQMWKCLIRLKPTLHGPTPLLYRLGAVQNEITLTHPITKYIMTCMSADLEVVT

IC50 [1]: 32 µM (not active)
Structure (SMILES): NS(=O)(=O)c1ccc2nc(NC(=O)c3ccc4ncsc4c3)sc2c1

Structure (SMILES): O=C(Nc1ccc(N2CCCCC2)cc1)c1ccccn1
IC50 [2]: > 80 µM (inactive) | IC50 [3]: 13.3 µM (not active) | EC50 [4]: 1.49 µM (active) | EC50 [5]: < 0.16 µM (active) | EC50 [6]: 1.06 µM (active)
